pIC50: −log10 of the molar value.
Experiments:
[1] = Non-specific cytotoxicity assay (MTT), mouse spleen lymphocytes; assay type: cell-based; settings: BALB/c, mouse, mouse whole spleen lymphocytes
Procedure: BALB/c mice were sacrificed by cervical dislocation, and spleens were aseptically excised to prepare whole spleen lymphocytes. The cells were adjusted to the required concentration. The compound concentrations started at 250 μM and was diluted with a 4-fold gradient to obtain 10 concentrations: 250, 62.5, 15.625, 3.906, 0.977, 0.244, 0.061, 0.015, 0.004 and 0.001 μM.
A suspension of mouse spleen lymphocytes was inoculated into a 96-well plate at 8×10^5/well, and the above 10 concentration gradients of the compound were added. A corresponding cell control (i.e. spleen lymphocyte culture system without compound) and a RPMI 1640 culture medium background control (blank culture medium control) were set up. The cells were cultured in a 37° C., 5% CO2 incubator for 48 hours. Four hours before the end of the culture, 20 μl of 5 mg/ml MTT solution was added, and the reaction continued until the end of the culture (i.e. the aforementioned 48 hours). The supernatant was aspirated and discarded, 200 μl DMSO was added to each well to dissolve the crystals. […]. The absorbance value was measured at […] with a microplate reader (Spectra Max 190, Molecular Devices).

[2] = system: mouse whole spleen lymphocytes (ConA-induced T cell activation and proliferation); assay: ConA-induced lymphocyte proliferation assay (3H-thymidine); assay type: cell-based; settings: Mus musculus, Lymphocyte, read-out: ConA IC50
Procedure: (§1) BALB/c mice were sacrificed by cervical dislocation, and spleens were aseptically excised to prepare whole spleen lymphocytes. The cells were adjusted to the required concentration.
(§2) A suspension of mouse spleen lymphocytes was inoculated into a 96-well plate at 5×10^5/well, and ConA (final concentration: 1 μg/ml) or LPS (final concentration: 10 μg/ml) and the above 10 concentration gradients of the compound were added. Corresponding cell control wells without ConA and LPS, as well as medicament-free stimulated control wells, were set up. The cells were cultured in a 37° C., 5% CO2 incubator for 48 hours. Eight hours before the end of the culture, ^3H-thymidine was added, and the culture continued until the end of the experiment (i.e., the aforementioned 48 hours). The cells were collected onto glass fiber membranes using a cell collector.
(§3) ConA and LPS, as mitogens, stimulated proliferation and differentiation of T and B lymphocytes, respectively. This process is similar to the activation process of lymphocytes in vivo. Therefore, mitogen-induced lymphocyte proliferation is commonly used as an indicator to evaluate functionality of lymphocytes.

[3] = system: mouse whole spleen lymphocytes (LPS-induced B cell activation and proliferation); assay: LPS-induced lymphocyte proliferation assay (3H-thymidine); assay type: cell-based; settings: Mus musculus, Lymphocyte, read-out: LPS IC50
Procedure: as §1, §2, §3

[4] = system: RAW264.7 cells; assay: Non-specific cytotoxicity assay (MTT), RAW264.7; assay type: cell-based, mouse; settings: 48 hours
Procedure: RAW264.7 cells were inoculated into a 96-well plate at 1×10^5/well and allowed to adhere to the wall for 6 hours in a 37° C., 5% CO2 incubator. […] A corresponding solvent control (cell control) and a culture medium background control (blank control) were set up. The cells were cultured in a 37° C., 5% CO2 incubator for 48 hours. Fifteen minutes before the end of the culture, 20 μl of 5 mg/ml MTT was added. At the end of the culture, the supernatant was aspirated and discarded, 200 μl DMSO was added to dissolve the crystals.

[5] = system: TNF-α; assay: TNF-α production by LPS-induced RAW264.7 cells (ELISA); assay type: cell-based, mouse
Procedure: (§4) RAW264.7 cells were inoculated into a 96-well plate at 1×10^5/well and allowed to adhere to the wall for 6 hours in a 37° C., 5% CO2 incubator. […] After the cells adhered to the wall, the stimulant LPS (final concentration: 10 μg/ml) and the gradient-diluted compounds were added. A corresponding stimulation control and a cell control (without stimulation) were set up. After the end of the culture, the cell culture supernatants were collected, and the levels of TNF-α, IL-1β and IL-6 were measured by ELISA.

[6] = system: IL-1β; assay: IL-1β production by LPS-induced RAW264.7 cells (ELISA); assay type: cell-based, mouse
Procedure: as §4

[7] = system: IL-6; assay: IL-6 production by LPS-induced RAW264.7 cells (ELISA); assay type: cell-based, mouse
Procedure: as §4

Compound	CC50 at 48 h [1]	pIC50 [2]	pIC50 [3]	CC50 [4]	pIC50 ([5]; LPS 10 μg/ml, RAW264.7)	production of TNF-α ([5]; LPS-induced RAW264.7, in words)	pIC50 ([6]; LPS 10 μg/ml, RAW264.7, read-out: IB-1β IC50)	production of LPS-induced IL-1β ([6]; RAW264.7, in words)	pIC50 ([7]; LPS 10 μg/ml, RAW264.7)	production of IL-6 ([7]; LPS-induced RAW264.7, in words)
CCN(CC)CCCC(C)Nc1ccnc2cc(Cl)ccc12 (stereo not shown) [Chloroquine Phosphate]	26.9 µM	4.84	4.82							
Chloroquine Sulfate				26.6 µM	4.49	no significant effect	5.57	significantly inhibited	4.83	no significant effect

Reference: patent publication US20250332154A1, “USE OF NAPHTHOQUINE PHOSPHATE IN PREPARATION OF A MEDICAMENT FOR TREATING AUTOIMMUNE DISEASES” (SHANGHAI PHARMACEUTICALS INDUSTRY CO., LTD, priority 2022, published 2025)
